From patent US12351574B2, “Selective ligands for modulation of GIRK channels” (Northeastern University, priority 2018, dated 2025)

Target: T1, GIRK1/2 (UniProt P48542+P48549)
T1 sequence (P48549 1-501): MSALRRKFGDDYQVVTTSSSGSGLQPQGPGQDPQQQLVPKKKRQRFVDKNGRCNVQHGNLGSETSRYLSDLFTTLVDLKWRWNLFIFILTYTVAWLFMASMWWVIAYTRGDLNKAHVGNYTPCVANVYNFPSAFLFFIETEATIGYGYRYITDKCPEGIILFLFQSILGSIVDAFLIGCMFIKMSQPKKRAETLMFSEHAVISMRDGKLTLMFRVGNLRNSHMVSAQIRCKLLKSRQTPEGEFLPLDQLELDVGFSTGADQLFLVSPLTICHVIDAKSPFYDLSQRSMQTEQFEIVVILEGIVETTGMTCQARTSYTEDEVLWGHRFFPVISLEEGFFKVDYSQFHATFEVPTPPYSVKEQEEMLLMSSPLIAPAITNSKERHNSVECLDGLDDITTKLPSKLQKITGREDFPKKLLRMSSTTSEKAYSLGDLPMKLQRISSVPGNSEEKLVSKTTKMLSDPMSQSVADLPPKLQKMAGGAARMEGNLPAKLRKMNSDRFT
T1 sequence (P48542 1-425): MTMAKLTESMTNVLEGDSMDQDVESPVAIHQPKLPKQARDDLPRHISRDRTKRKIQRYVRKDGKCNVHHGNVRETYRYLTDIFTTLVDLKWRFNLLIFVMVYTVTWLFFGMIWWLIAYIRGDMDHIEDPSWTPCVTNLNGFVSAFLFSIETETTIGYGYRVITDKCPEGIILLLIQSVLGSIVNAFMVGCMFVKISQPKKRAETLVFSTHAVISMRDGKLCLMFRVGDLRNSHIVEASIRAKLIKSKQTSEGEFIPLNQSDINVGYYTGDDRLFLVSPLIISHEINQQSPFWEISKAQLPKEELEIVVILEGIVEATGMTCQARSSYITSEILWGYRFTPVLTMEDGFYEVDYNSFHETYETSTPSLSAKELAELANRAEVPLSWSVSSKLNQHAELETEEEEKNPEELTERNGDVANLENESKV
Assay: concentration-response, whole-cell patch clamp in HEK-293 cells expressing GIRK1/2
Type: cell-based, human GIRK1, mouse GIRK2
Design: expressed in transfected cells
Conditions: FIGS. 5A-5C
Procedure: Culture of HEK293 cells: HEK293-T cells were obtained from ATCC and maintained in DMEM medium supplemented with 10% FBS and 1% penicillin and streptomycin (Hyclone). For patch-clamp studies, cells were seeded on glass coverslips and transfected 24-hours later using a polyethylenimine solution (1 mg/ml) at a ratio of 8 μl per μg of DNA. To study GIRK-currents, cells were transfected with 0.75 μg each of plasmids encoding GIRK1, GIRK2 or GIRK4 as indicated. In the optogenetic experiments, cells were co-transfected with plasmids encoding 5-ptaseOCRL and CIBN-CAAX, as previously described. 5-ptaseOCRL and CIBN-CAAX were a kind gift from the DeCamilli lab, Yale CT. All experiments were performed at room temperature 24-36 hours post transfection.
Patch-clamp recording: Whole-cell currents were recorded with an Axopatch 200B amplifier (Molecular Devices) controlled via a USB-interface (National Instruments) using WinWCP software (University of Strathclyde). […] The barium-sensitive component of the current, observed when cells were perfused with the high-K^+ buffer, was analyzed and was determined by perfusing 5 mM BaCl2 in the high-K^+ buffer at the end of each experiment. […]
Patch-clamp recording: Whole-cell currents were recorded with an Axopatch 200B amplifier (Molecular Devices) controlled via a USB-interface (National Instruments) using WinWCP software (University of Strathclyde). […]

potency and efficacy compared to ML297 or GAT1521 (in words): highest potency and efficacy
SMILES: Cc1cc(NC(=O)Nc2ccc(Br)s2)n(-c2ccccc2)n1 [GAT1508, 1-(5-bromothiophen-2-yl)-3-(3-methyl-1-phenyl-1H-pyrazol-5-yl)urea]
